Where a name gives a salt, the structure may show the parent alone. Peptide text beside a SMILES is read from it.
Columns and labels:
[1] = tested on: NCI-H292 lung cancer cells; experiment: FDA drug screening, complete media vs cholesterol-free media without statin (TABLE 1); format: cell-based, human
[2] = tested on: NCI-H292 lung cancer cells; experiment: FDA drug screening, complete media vs cholesterol-free media with simvastatin (TABLE 2); format: cell-based, human; settings: for Cholesterol-free media + simvastatin (0.04 μM) / Complete Media: NCI-H292 cells
[3] = Complete minus Cholesterol-free, greater than 0 enhanced anti-cancer activity, about 0 neutral, below 0 antagonist
[4] = NCI-H292 cells, FDA drug library screen, cholesterol-free media without statin
[5] = NCI-H292 cells, FDA drug library screen, complete media
[6] = cholesterol-free media with simvastatin 0.04 μM, FDA drug library screen (TABLE 2)
[7] = complete media, FDA drug library screen (TABLE 2)
[8] = complete media minus cholesterol-free media + simvastatin (0.04 μM), >0 enhanced anti-cancer activity, about 0 neutral, <0 antagonist
[9] = Complete minus Cholesterol-free, >0 enhanced anti-cancer activity, about 0 neutral, <0 antagonist
[10] = NCI-H292 cells, cholesterol-free media without statin
[11] = FDA drug library screen, cholesterol-free media with simvastatin 0.04 μM
[12] = FDA drug library screen, complete media
[13] = complete media vs cholesterol-free media + simvastatin (0.04 μM), >0 enhanced anti-cancer activity, about 0 neutral, <0 antagonist
[14] = FDA library drug in cholesterol-free media with simvastatin 0.04 μM
[15] = FDA library drug in complete media
[16] = complete vs cholesterol-free media, greater than 0 enhanced anti-cancer activity, about 0 neutral, below 0 antagonists
[17] = NCI-H292 cells, cholesterol-free media without statin, FDA drug library screen
[18] = NCI-H292 cells, complete media, FDA drug library screen
[19] = complete media minus cholesterol-free media + simvastatin, >0 enhanced anti-cancer activity, about 0 neutral, <0 antagonist
[20] = Complete minus Cholesterol-free, greater than 0 enhanced anti-cancer activity, about 0 neutral, below 0 antagonists
[21] = NCI-H292 cells in cholesterol-free media without statin
[22] = NCI-H292 cells in complete media
[23] = drug in cholesterol-free media with simvastatin 0.04 μM
[24] = complete vs cholesterol-free media, >0 enhanced anti-cancer activity, about 0 neutral, <0 antagonist
[25] = Complete minus Cholesterol-free, […]

C1CCC(C(CC2CCCCN2)C2CCCCC2)CC1 (stereo not drawn) [Perhexiline maleate]
Difference [1, 3]: −0.14 | Cholesterol-free [1, 4]: 1.139 | Complete [1, 5]: 1.003 | Cholesterol-free media + simvastatin (0.04 μM) [2, 6]: 0.8717 | Complete Media [2, 7]: 0.811 | Difference [2, 8]: −0.06

N#Cc1ccc2c(c1)N(CCCN1CCC(O)CC1)c1ccccc1S2 [Pericyazine]
Difference [1, 3]: −0.09 | Cholesterol-free [1, 4]: 0.9265 | Complete [1, 5]: 0.8353 | Cholesterol-free media + simvastatin (0.04 μM) [2, 6]: 1.378 | Complete Media [2, 7]: 1.353 | Difference [2, 8]: −0.02

CC(C)(C)N.CCC[C@H](N[C@@H](C)C(=O)N1[C@H](C(=O)O)C[C@@H]2CCCC[C@@H]21)C(=O)OCC [Perindopril (erbumine)]
Difference [1, 9]: −0.25 | Cholesterol-free [1, 10]: 1.151 | Complete ([1]; NCI-H292 cells, complete media): 0.8989 | Cholesterol-free media + simvastatin (0.04 μM) [2, 11]: 0.9237 | Complete Media [2, 12]: 0.7917 | Difference [2, 13]: −0.13

CC1(C)C(C=C(Cl)Cl)C1C(=O)OCc1cccc(Oc2ccccc2)c1 (stereo not drawn) [Permethrin]
Cholesterol-free [1, 10]: 1.352 | Complete ([1]; NCI-H292 cells, complete media): 0.9496 | Difference ([1]; complete vs cholesterol-free media, […]): −0.40 | Cholesterol-free media + simvastatin (0.04 μM) [2, 14]: 1.233 | Complete Media [2, 15]: 0.8994 | Difference ([2]; complete media vs cholesterol-free media + simvastatin (0.04 μM), […]): −0.33

O=C1[C@H]2CCCC[C@H]2C(=O)N1CCCCN1CCN(c2nsc3ccccc23)CC1 [Perospirone]
Cholesterol-free [1, 10]: 1.046 | Complete ([1]; NCI-H292 cells, complete media): 0.7154 | Difference [1, 16]: −0.33 | Cholesterol-free media + simvastatin (0.04 μM) [2, 6]: 0.9946 | Complete Media [2, 7]: 0.9329 | Difference [2, 8]: −0.06

OCCN1CCN(CCCN2c3ccccc3Sc3ccc(Cl)cc32)CC1 [Perphenazine]
Difference [1, 9]: 0.00 | Cholesterol-free [1, 17]: 0.9098 | Complete [1, 18]: 0.9103 | Cholesterol-free media + simvastatin (0.04 μM) [2, 11]: 0.707 | Complete Media [2, 12]: 0.9554 | Difference [2, 19]: 0.25

FC(F)(F)c1ccc(CNc2ccc(Cc3c[nH]c4ncc(Cl)cc34)cn2)cn1 [Pexidartinib (hydrochloride)]
Cholesterol-free [1, 10]: 1.204 | Complete ([1]; NCI-H292 cells, complete media): 0.7514 | Difference [1, 16]: −0.45 | Cholesterol-free media + simvastatin (0.04 μM) [2, 11]: 1.136 | Complete Media [2, 12]: 1.002 | Difference [2, 13]: −0.13

FC(F)(F)c1ccc(CNc2ccc(Cc3c[nH]c4ncc(Cl)cc34)cn2)cn1 [Pexidartinib]
Difference [1, 20]: −0.77 | Cholesterol-free [1, 21]: 1.609 | Complete [1, 22]: 0.8353 | Cholesterol-free media + simvastatin (0.04 μM) [2, 23]: 1.767 | Complete Media ([2]; drug in complete media): 1.579 | Difference [2, 13]: −0.19

CCOc1ccc(NC(C)=O)cc1 [Phenacetin]
Difference [1, 3]: −0.09 | Cholesterol-free [1, 4]: 0.9552 | Complete [1, 5]: 0.8688 | Cholesterol-free media + simvastatin (0.04 μM) [2, 11]: 1.132 | Complete Media [2, 12]: 1.048 | Difference [2, 13]: −0.08

COS(=O)(=O)[O-].C[n+]1c2ccccc2nc2ccccc21 [Phenazine (methylsulfate)]
Difference [1, 9]: −0.01 | Cholesterol-free [1, 17]: 0.03605 | Complete [1, 18]: 0.02161 | Cholesterol-free media + simvastatin (0.04 μM) [2, 6]: 0.07249 | Complete Media [2, 7]: 0.06209 | Difference [2, 8]: −0.01

Nc1ccc(/N=N/c2ccccc2)c(N)n1 [Phenazopyridine (hydrochloride)]
Difference [1, 9]: −0.06 | Cholesterol-free [1, 17]: 1.194 | Complete [1, 18]: 1.131 | Cholesterol-free media + simvastatin (0.04 μM) [2, 11]: 1.284 | Complete Media [2, 12]: 1.801 | Difference [2, 19]: 0.52

[H]/N=C(/N)N/C(=N/[H])NCCc1ccccc1 [Phenformin (hydrochloride)]
Difference [1, 3]: −0.12 | Cholesterol-free [1, 4]: 0.9657 | Complete [1, 5]: 0.8472 | Cholesterol-free media + simvastatin (0.04 μM) [2, 11]: 1.171 | Complete Media [2, 12]: 1.373 | Difference [2, 19]: 0.20

O=C1c2ccccc2C(=O)C1c1ccccc1 [Phenindione]
Cholesterol-free [1, 17]: 0.7484 | Difference [1, 24]: 0.40 | Cholesterol-free media + simvastatin (0.04 μM) [2, 23]: 1.567 | Complete Media ([2]; drug in complete media): 1.395 | Difference [2, 13]: −0.17

O=C1OC(c2ccc(O)cc2)(c2ccc(O)cc2)c2ccccc21 [Phenolphthalein]
Difference [1, 9]: −0.30 | Cholesterol-free [1, 10]: 1.17 | Complete ([1]; NCI-H292 cells, complete media): 0.8721 | Cholesterol-free media + simvastatin (0.04 μM) [2, 23]: 1.026 | Complete Media ([2]; drug in complete media): 0.7863 | Difference [2, 13]: −0.24

c1ccc2c(c1)Nc1ccccc1S2 [Phenothiazine]
Difference [1, 25]: −0.11 | Cholesterol-free [1, 4]: 1.108 | Complete [1, 5]: 1.002 | Cholesterol-free media + simvastatin (0.04 μM) ([2]; cholesterol-free media with simvastatin 0.04 μM, […]): 1.18 | Complete Media ([2]; complete media, […]): 1.261 | Difference ([2]; complete media minus cholesterol-free media + simvastatin, […]): 0.08

CC(COc1ccccc1)N(CCCl)Cc1ccccc1 (stereo not drawn) [Phenoxybenzamine (hydrochloride)]
Difference [1, 25]: −0.20 | Cholesterol-free [1, 10]: 0.9421 | Complete ([1]; NCI-H292 cells, complete media): 0.7375 | Cholesterol-free media + simvastatin (0.04 μM) [2, 6]: 0.9012 | Complete Media [2, 7]: 0.8799 | Difference ([2]; complete media minus cholesterol-free media + simvastatin (0.04 μM), […]): −0.02

CCC(c1ccccc1)c1c(O)c2ccccc2oc1=O (stereo not drawn) [Phenprocoumon]
Cholesterol-free [1, 10]: 1.312 | Complete ([1]; NCI-H292 cells, complete media): 0.8729 | Difference [1, 16]: −0.44 | Cholesterol-free media + simvastatin (0.04 μM) [2, 23]: 1.071 | Complete Media ([2]; drug in complete media): 0.9061 | Difference [2, 13]: −0.16

CN1C(=O)CC(c2ccccc2)C1=O (stereo not drawn) [Phensuximide]
Difference [1, 9]: −0.30 | Cholesterol-free [1, 10]: 1.128 | Complete ([1]; NCI-H292 cells, complete media): 0.8334 | Cholesterol-free media + simvastatin (0.04 μM) [2, 23]: 1.556 | Complete Media ([2]; drug in complete media): 1.333 | Difference [2, 13]: −0.22

CCCCC1C(=O)N(c2ccccc2)N(c2ccccc2)C1=O [Phenylbutazone]
Difference [1, 9]: −0.26 | Cholesterol-free [1, 10]: 1.376 | Complete ([1]; NCI-H292 cells, complete media): 1.114 | Cholesterol-free media + simvastatin (0.04 μM) ([2]; cholesterol-free media with simvastatin 0.04 μM, cell growth value in FDA drug screen): 1.076 | Difference [2, 19]: 0.07

CNC[C@H](O)c1cccc(O)c1 [Phenylephrine (hydrochloride)]
Difference [1, 20]: −0.61 | Cholesterol-free [1, 21]: 1.371 | Complete [1, 22]: 0.7558 | Cholesterol-free media + simvastatin (0.04 μM) [2, 11]: 2.302 | Difference [2, 8]: −1.21

CNC[C@H](O)c1cccc(O)c1 [Phenylephrine]
Cholesterol-free [1, 10]: 1.197 | Complete ([1]; NCI-H292 cells, complete media): 0.817 | Difference [1, 16]: −0.38 | Cholesterol-free media + simvastatin (0.04 μM) [2, 11]: 1.256 | Complete Media [2, 12]: 1.518 | Difference [2, 19]: 0.26

O=C1NC(=O)C(c2ccccc2)(c2ccccc2)N1 [Phenytoin (sodium)]
Difference [1, 9]: −0.27 | Cholesterol-free [1, 10]: 1.197 | Complete ([1]; NCI-H292 cells, complete media): 0.9283 | Cholesterol-free media + simvastatin (0.04 μM) [2, 6]: 0.8893 | Complete Media [2, 7]: 0.8884 | Difference [2, 8]: 0.00

O=C1NC(=O)C(c2ccccc2)(c2ccccc2)N1 [Phenytoin]
Cholesterol-free [1, 17]: 0.8044 | Complete [1, 18]: 0.8965 | Difference [1, 24]: 0.09 | Cholesterol-free media + simvastatin (0.04 μM) [2, 11]: 1.316 | Complete Media [2, 12]: 1.23 | Difference [2, 13]: −0.09

CC(=O)NS(=O)(=O)c1ccc(NC(=O)c2ccccc2C(=O)O)cc1 [Phthalylsulfacetamide]
Difference [1, 9]: −0.29 | Cholesterol-free [1, 10]: 1.274 | Complete ([1]; NCI-H292 cells, complete media): 0.9792 | Cholesterol-free media + simvastatin (0.04 μM) [2, 14]: 1.031 | Complete Media [2, 15]: 0.7098 | Difference [2, 13]: −0.32

O=C1CC[C@@H](C(=O)N2CSC[C@H]2C(=O)O)N1 [Pidotimod] (HELM PEPTIDE1{[Glp].[O=C(O)[C@@H]1CSCN1[*:1]]}$$$$V2.0)
Cholesterol-free [1, 10]: 1.383 | Complete ([1]; NCI-H292 cells, complete media): 0.9708 | Difference [1, 16]: −0.41 | Cholesterol-free media + simvastatin (0.04 μM) [2, 6]: 1.016 | Complete Media [2, 7]: 1.03 | Difference [2, 8]: 0.01

CC(C)COc1ccc(CNC(=O)N(Cc2ccc(F)cc2)C2CCN(C)CC2)cc1 [Pimavanserin]
Cholesterol-free [1, 17]: 0.9868 | Complete [1, 18]: 1.126 | Difference [1, 24]: 0.14 | Cholesterol-free media + simvastatin (0.04 μM) [2, 11]: 0.8784 | Complete Media [2, 12]: 1.133 | Difference [2, 19]: 0.25

CC[C@@H]1/C=C(\C)C[C@H](C)C[C@H](OC)[C@H]2O[C@@](O)(C(=O)C(=O)N3CCCC[C@H]3C(=O)O[C@H](/C(C)=C/[C@@H]3CC[C@H](Cl)[C@H](OC)C3)[C@H](C)[C@@H](O)CC1=O)[C@H](C)C[C@@H]2OC [Pimecrolimus]
Difference [1, 9]: −0.26 | Cholesterol-free [1, 10]: 1.022 | Complete ([1]; NCI-H292 cells, complete media): 0.7576 | Cholesterol-free media + simvastatin (0.04 μM) [2, 23]: 1.1 | Complete Media ([2]; drug in complete media): 0.8909 | Difference [2, 13]: −0.21

CN1CCC(=C2c3ccccc3Sc3ccccc32)CC1 [Pimethixene maleate]
Cholesterol-free [1, 10]: 1.492 | Complete ([1]; NCI-H292 cells, complete media): 1.142 | Difference [1, 16]: −0.35 | Cholesterol-free media + simvastatin (0.04 μM) [2, 23]: 1.097 | Complete Media ([2]; drug in complete media): 0.9153 | Difference [2, 13]: −0.18

COc1ccc(-c2nc3ccc(C4=NNC(=O)CC4C)cc3[nH]2)cc1 (stereo not drawn) [Pimobendan]
Difference [1, 3]: −0.11 | Cholesterol-free [1, 4]: 1.104 | Complete [1, 5]: 0.9932 | Cholesterol-free media + simvastatin (0.04 μM) [2, 6]: 1.535 | Complete Media [2, 7]: 1.535 | Difference [2, 8]: 0.00
